# Results published in ChEMBL document CHEMBL1201862, “PubChem BioAssay data set” (2004).
# The source made the active and inactive calls.
# Legend:
# Phospholipase A2 = Phospholipase A2 (Homo sapiens, UniProt P04054); assay type: functional;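 further: confirmatory dose-response counterscreen on phospholipase A2, testing hits that came from an ultra-high-throughput screen for ATG4B inhibitors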
# Coagulation factor XII = target: T1, Coagulation factor XII (Homo sapiens, UniProt P00748); assay type: functional;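 further: activated factor XIIa alpha cleaving a fluorogenic AMC peptide substrate; inhibitor potency from loss of enzyme activity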
# T1 sequence (P00748 whole entry): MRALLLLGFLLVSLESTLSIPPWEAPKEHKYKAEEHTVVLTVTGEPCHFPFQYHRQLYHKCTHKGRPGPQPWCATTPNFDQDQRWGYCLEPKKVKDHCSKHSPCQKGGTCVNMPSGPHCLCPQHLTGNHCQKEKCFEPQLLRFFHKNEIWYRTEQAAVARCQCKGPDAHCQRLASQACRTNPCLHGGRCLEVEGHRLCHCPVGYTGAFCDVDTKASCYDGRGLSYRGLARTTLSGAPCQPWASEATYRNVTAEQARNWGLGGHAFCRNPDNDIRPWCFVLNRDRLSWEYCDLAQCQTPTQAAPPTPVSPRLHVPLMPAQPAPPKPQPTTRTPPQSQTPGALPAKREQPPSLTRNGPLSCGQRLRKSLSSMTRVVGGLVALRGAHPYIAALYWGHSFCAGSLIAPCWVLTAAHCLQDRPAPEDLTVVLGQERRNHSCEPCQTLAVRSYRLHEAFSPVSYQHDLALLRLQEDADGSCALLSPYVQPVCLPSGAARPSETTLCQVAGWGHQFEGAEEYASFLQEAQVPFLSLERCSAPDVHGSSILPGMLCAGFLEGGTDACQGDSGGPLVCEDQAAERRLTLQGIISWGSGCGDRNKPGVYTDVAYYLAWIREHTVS
# Cysteine protease ATG4B = target: T2, Cysteine protease ATG4B (Homo sapiens, UniProt Q9Y4P1); assay type: functional;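 further: Fluorescence-based dose-response confirmation assay measuring inhibition of ATG4B activity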
# T2 sequence (Q9Y4P1 whole entry): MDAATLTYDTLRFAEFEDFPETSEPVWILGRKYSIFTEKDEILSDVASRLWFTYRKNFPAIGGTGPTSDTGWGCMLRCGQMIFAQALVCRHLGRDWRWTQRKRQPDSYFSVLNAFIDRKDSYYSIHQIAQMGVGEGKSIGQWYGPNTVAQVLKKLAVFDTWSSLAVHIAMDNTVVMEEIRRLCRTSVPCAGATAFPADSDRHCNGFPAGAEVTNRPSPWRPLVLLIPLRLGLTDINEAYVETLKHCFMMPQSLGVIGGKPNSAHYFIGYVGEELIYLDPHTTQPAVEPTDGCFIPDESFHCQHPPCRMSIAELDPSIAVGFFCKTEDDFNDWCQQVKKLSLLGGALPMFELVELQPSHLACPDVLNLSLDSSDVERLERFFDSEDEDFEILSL
# Cytochrome P450 3A4 = Cytochrome P450 3A4 (Homo sapiens, UniProt P08684);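 further: CYP3A4 tested as one member of a cytochrome P450 panel screen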
# Cytochrome P450 3A4, sequence (P08684 whole entry): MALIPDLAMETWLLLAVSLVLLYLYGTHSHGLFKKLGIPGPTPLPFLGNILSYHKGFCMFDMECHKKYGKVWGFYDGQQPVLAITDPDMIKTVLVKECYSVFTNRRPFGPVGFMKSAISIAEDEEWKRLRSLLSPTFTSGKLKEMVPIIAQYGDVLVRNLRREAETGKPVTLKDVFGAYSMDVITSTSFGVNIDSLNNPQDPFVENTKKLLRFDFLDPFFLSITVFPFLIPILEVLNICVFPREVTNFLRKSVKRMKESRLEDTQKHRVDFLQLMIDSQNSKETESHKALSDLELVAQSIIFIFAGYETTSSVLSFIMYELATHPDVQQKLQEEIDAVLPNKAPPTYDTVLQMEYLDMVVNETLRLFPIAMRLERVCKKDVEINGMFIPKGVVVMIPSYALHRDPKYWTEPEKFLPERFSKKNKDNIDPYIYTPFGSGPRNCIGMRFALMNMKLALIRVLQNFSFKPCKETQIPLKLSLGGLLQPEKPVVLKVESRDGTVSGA
# Cytochrome P450 2C9 = Cytochrome P450 2C9 (Homo sapiens, UniProt P11712)
# Vero [1] = test: cells; assay type: functional; settings: Chlorocebus sabaeus
# Vero [2] = test: cells; assay type: functional, cell-based; settings: Chlorocebus sabaeus
# Vero [3] = test: host cell cytotoxicity of antiviral hits, dose response, cytotoxicity control for West Nile virus antiviral project, secondary assay (AID 1650); assay type: functional; settings: Chlorocebus sabaeus
# HeLa = test: HeLa cell cytotoxicity, dose response, cytotoxicity control for MITF activator project, CellTiter-Glo luminescence, cherry-pick samples (AID 540259); assay type: functional, cell-based; settings: Homo sapiens
# [4] = target: NAD-dependent protein deacylase sirtuin-5, mitochondrial (Homo sapiens, UniProt Q9NXA8); test: SIRT5 desuccinylase inhibitors, dose response, biochemical, fluorescence imaging, cherry-pick, set 5 (AID 720591);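 further: desuccinylation of succinyl peptide AMC substrate read as fluorescence after trypsin release; potency of inhibitors that lower fluorescence and may act on trypsin instead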
# [5] = target: T3, Voltage-gated N-type calcium channel alpha-1B subunit/Amyloid beta A4 precursor protein-binding family A member 1 (Homo sapiens, UniProt Q00975+Q02410); assay type: protein assay
# T3 sequence (Q00975 whole entry): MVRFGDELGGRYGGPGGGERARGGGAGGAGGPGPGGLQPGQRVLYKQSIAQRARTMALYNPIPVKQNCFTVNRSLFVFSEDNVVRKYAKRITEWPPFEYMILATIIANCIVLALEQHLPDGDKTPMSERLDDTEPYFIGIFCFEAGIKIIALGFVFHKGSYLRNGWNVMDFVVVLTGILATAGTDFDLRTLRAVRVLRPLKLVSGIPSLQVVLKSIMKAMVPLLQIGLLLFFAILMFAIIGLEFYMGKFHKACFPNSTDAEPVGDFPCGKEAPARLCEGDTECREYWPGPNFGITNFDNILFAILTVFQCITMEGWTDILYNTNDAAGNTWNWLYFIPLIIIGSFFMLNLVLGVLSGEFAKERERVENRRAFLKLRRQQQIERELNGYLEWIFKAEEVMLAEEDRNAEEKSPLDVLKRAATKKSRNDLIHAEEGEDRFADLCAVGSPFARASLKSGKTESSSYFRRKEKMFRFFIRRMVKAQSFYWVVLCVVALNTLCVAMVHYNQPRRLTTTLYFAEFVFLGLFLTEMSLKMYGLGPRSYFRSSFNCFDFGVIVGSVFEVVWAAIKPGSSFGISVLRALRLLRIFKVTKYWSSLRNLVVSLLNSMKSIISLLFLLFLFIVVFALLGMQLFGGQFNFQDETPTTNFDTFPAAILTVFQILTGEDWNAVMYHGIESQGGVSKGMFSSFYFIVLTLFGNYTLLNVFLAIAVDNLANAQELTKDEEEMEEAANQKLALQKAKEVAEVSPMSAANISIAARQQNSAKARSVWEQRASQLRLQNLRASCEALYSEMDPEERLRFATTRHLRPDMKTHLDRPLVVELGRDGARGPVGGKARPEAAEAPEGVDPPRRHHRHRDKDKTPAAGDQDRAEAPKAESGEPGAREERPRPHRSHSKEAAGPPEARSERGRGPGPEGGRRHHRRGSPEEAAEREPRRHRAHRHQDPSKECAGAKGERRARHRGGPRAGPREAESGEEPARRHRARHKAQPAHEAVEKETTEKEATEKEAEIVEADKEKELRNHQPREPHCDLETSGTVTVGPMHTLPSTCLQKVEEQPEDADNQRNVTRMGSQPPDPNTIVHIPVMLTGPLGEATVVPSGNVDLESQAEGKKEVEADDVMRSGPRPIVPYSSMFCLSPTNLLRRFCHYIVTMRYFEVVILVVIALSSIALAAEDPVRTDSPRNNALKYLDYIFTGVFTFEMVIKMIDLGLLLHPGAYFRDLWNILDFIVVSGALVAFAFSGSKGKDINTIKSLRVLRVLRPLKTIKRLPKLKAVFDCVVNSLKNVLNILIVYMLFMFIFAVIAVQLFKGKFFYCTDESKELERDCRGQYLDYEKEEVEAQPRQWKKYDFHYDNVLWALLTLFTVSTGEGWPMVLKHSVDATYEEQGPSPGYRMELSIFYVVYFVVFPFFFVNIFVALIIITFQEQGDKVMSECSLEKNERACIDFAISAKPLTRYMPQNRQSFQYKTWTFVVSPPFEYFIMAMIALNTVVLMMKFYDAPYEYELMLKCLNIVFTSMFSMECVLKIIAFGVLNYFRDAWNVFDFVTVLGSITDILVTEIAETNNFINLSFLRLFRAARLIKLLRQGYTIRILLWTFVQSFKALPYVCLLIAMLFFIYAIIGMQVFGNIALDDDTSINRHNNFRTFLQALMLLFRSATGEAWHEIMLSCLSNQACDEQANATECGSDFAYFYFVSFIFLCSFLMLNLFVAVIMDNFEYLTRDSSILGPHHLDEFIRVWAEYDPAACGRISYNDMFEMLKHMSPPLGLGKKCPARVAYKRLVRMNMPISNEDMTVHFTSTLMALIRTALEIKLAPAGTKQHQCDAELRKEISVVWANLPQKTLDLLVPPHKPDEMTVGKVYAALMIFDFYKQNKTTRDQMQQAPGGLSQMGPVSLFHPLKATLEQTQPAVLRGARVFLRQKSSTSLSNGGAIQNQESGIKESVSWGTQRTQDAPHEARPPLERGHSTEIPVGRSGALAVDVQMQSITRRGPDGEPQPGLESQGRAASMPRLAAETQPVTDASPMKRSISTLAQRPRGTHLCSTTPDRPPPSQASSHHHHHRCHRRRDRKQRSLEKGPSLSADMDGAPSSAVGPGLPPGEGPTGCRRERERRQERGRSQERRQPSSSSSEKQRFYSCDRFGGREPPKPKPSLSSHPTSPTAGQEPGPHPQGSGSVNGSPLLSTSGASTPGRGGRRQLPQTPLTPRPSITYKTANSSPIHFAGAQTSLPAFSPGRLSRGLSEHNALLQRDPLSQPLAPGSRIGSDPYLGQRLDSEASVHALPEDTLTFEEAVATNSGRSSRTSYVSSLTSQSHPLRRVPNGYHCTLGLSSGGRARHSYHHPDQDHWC
# T3 sequence (Q02410 whole entry): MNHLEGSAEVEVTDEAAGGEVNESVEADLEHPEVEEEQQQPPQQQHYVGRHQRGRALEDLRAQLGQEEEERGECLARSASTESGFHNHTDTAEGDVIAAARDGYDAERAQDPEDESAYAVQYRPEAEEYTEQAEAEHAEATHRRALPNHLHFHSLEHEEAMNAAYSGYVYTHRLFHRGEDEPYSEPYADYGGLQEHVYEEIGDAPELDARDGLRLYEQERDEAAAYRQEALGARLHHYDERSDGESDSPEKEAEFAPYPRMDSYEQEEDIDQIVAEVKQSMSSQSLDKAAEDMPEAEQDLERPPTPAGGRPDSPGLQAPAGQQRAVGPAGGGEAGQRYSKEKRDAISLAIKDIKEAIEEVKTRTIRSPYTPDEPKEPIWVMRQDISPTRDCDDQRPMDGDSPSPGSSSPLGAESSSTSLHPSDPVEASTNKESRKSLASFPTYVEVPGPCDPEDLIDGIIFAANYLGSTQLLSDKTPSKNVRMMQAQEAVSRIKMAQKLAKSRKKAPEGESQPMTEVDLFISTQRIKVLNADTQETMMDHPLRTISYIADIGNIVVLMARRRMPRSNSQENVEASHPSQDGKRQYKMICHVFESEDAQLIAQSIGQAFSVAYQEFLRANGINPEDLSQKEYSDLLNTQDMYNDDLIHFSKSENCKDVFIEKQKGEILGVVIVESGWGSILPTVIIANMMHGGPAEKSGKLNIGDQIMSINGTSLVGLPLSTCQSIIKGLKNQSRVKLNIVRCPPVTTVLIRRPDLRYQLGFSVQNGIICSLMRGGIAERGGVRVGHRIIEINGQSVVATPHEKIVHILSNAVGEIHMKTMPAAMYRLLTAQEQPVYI
# [6] = target: T3, Voltage-gated N-type calcium channel alpha-1B subunit/Amyloid beta A4 precursor protein-binding family A member 1; assay type: protein assay; remark: listed apart in the source
# [7] = target: Dual specificity tyrosine-phosphorylation-regulated kinase 1A (Rattus norvegicus, UniProt Q63470); assay type: biochemical, Homo sapiens
# Beta-galactosidase = Beta-galactosidase (Escherichia coli, UniProt Q8VNN2); test: beta-galactosidase enzyme inhibitors and activators, dose response, artefact control for CCR6 antagonist project, biochemical, E. coli enzyme, set 3 (AID 504712); assay type: functional
# Beta-galactosidase, sequence (Q8VNN2 whole entry): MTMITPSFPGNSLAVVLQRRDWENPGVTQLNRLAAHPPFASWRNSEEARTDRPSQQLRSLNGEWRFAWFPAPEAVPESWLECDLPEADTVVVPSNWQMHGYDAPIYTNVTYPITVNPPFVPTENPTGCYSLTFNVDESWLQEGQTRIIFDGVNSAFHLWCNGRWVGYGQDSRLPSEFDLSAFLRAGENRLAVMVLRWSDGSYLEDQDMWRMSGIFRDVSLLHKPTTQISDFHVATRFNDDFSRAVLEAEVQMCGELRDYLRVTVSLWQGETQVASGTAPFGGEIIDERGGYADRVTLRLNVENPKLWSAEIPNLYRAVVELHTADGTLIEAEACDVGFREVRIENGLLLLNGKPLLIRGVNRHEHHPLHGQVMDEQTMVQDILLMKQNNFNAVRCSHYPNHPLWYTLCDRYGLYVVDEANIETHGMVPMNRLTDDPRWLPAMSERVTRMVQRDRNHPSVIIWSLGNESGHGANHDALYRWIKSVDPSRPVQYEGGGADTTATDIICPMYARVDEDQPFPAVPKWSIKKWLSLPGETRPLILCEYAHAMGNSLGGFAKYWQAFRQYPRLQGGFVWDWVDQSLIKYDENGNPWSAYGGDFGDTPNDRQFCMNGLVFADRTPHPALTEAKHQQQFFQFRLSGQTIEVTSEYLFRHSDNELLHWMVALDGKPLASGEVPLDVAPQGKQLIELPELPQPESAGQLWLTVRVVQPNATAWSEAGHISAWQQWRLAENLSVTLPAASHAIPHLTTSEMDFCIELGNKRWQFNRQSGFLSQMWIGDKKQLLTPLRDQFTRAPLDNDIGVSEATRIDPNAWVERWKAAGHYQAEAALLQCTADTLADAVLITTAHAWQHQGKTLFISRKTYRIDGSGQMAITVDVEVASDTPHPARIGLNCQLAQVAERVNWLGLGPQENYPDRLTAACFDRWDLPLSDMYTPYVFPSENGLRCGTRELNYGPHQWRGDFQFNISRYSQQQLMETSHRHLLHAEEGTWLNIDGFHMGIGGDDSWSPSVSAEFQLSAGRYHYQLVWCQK
# [8] = target: T4, C-C chemokine receptor type 6 (Homo sapiens, UniProt P51684); test: CCR6 receptor antagonists, dose response, cell-based, luminescent beta-arrestin readout (AID 504728); assay type: functional
# T4 sequence (P51684 whole entry): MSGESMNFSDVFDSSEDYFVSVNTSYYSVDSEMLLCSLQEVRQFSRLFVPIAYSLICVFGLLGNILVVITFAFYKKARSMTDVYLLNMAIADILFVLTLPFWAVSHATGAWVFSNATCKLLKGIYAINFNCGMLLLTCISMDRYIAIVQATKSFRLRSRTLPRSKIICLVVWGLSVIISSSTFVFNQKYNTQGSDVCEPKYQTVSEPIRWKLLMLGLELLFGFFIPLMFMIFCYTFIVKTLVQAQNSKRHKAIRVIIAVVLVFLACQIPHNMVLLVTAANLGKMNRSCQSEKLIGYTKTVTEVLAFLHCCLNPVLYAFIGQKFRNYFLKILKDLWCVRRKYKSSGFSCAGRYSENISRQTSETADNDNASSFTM
# [9] = target: DNA dC->dU-editing enzyme APOBEC-3A (Homo sapiens, UniProt P31941); test: Dose Response confirmation of small molecule APOBEC3A DNA Deaminase Inhibitors via a fluorescence-based single-stranded DNA deaminase assay. [Related pubchem assays (depositor defined):AID493011, AID493024]; assay type: functional
# DNA dC->dU-editing enzyme APOBEC-3A, sequence (P31941 whole entry): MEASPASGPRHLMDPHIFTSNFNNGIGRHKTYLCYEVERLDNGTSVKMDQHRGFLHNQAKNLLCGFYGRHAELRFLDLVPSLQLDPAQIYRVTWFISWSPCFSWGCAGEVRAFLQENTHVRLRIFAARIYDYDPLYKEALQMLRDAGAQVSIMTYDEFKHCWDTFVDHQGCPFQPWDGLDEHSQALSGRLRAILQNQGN
# [10] = target: DNA dC->dU-editing enzyme APOBEC-3G (Homo sapiens, UniProt Q9HC16); assay type: functional;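 further: Dose-response counterscreen measuring inhibition of APOBEC3G DNA deaminase activity, run while confirming APOBEC3A inhibitors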
# [11] = inhibitors of firefly luciferase expression or activity, dose response, H4 neuroglioma cells, luminescence (AID 1990); assay type: functional, cell-based
# [12] = growth suppression of PTEN-null colon cells, dose response, cell-based, HCT116 PTEN knockout (AID 1047); assay type: functional;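 further: HCT116 colon tumor cells with PTEN knocked out; cells exposed to compound for 60 hours before readout; potency for loss of cell viability measured by luminescence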
# [13] = inhibitors of SNCA 5'UTR-driven reporter translation, confirmation, H4 neuroglioma cells, luminescence (AID 1988); assay type: functional, cell-based
# [14] = growth suppression of beta-catenin-knockout colon cells, dose response, cell-based, HCT116, human colon tumor (AID 1045); assay type: functional;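 further: HCT116 colon tumor cells with beta catenin knocked out; cells exposed to compound for 60 hours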
# [15] = Luminescence Cell-Based Dose Response HTS to Identify Inhibitors of 5'UTR Stem-Loop Driven Prion Protein mRNA Translation in H4 Neuroglioblastoma Cells. [Related pubchem assays: 1827 (Project Summary), 1813 (Primary HTS)]; assay type: functional
# [16] = target: T5, Ubiquitin-conjugating enzyme E2 N (Homo sapiens, UniProt P61088); assay type: functional;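 further: Dose-response confirmation in a TR-FRET assay detecting UBC13-driven polyubiquitin chain formation, inhibition measured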
# T5 sequence (P61088 whole entry): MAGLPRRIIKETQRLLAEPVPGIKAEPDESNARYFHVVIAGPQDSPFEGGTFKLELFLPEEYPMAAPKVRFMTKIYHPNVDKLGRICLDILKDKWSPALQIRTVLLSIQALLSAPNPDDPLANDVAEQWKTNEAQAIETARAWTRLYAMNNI
# [17] = target: Heat shock protein HSP 90-alpha (Homo sapiens, UniProt P07900); assay type: functional, organism-based
# [18] = target: Glucose-6-phosphate 1-dehydrogenase (Homo sapiens, UniProt P11413); test: human G6PD enzyme inhibitors, dose response, selectivity assay for P. falciparum G6PD inhibitor project, biochemical, fluorescence (AID 504792); assay type: functional
# INS1 = test: beta cell apoptosis inhibitors, cytokine rescue, dose response, luminescence, retest (AID 449756); assay type: functional, cell-based; settings: Rattus norvegicus;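 further: cell death triggered by IL-1 beta plus TNF-alpha plus IFN-gamma mixture; protective hits raise ATP signal compared with cytokine alone wells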
# BJ [19] = test: cells; assay type: functional, cell-based; settings: Homo sapiens
# BJ [20] = test: cytotoxicity toward BJ-TERT-LT-ST fibroblasts, dose response, cell-based, RAS-independent, luminescence (AID 1935); assay type: functional; settings: Homo sapiens;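 further: BJ fibroblasts immortalized with TERT plus LT and ST oncogenes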
# BJ [21] = test: cytotoxicity toward BJ-TERT fibroblasts, dose response, cell-based, RAS-independent, luminescence (AID 1933); assay type: functional; settings: Homo sapiens
# [22] = cytotoxicity toward DRD oncogenic fibroblasts, dose response, cell-based, non-viral oncogenic, luminescence (AID 1934); assay type: functional; settings: Homo sapiens
# BJ [23] = test: cytotoxicity toward Ras-transformed BJeLR fibroblasts, dose response, cell-based, alamar blue fluorescence, cherrypicked samples (AID 2631); assay type: functional; settings: Homo sapiens;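 further: confirmatory dose-response assay in RAS-dependent BJ fibroblasts engineered with TERT, LT and ST, with cytotoxicity read by fluorescence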
# [24] = NIH-3T3 fibroblast cytotoxicity, dose response, cytotoxicity control, cell-based, fluorescence, Alamar Blue, secondary assay (AID 2327); assay type: functional;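 further: NIH-3T3 mouse fibroblasts cultured with fluconazole at 8 µg/mL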
# [25] = target: ATP-dependent molecular chaperone HSP82 (Candida albicans (strain WO-1) (Yeast), UniProt C4YTQ8); test: loss of DOC-induced GRE-beta-galactosidase reporter signal, dose response, Hsp90 inhibitor project, S. cerevisiae, luminescence (AID 2400); assay type: functional, cell-based;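 further: beta-galactosidase luminescence from glucocorticoid response element reporter as proxy for Hsp90 function; inhibitor potency where signal loss means Hsp90 inhibition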
# [26] = C. albicans growth with fluconazole, confirmation, fluorescence, retest (AID 2467); assay type: functional, cell-based
# [27] = target: T6, Serine/threonine-protein phosphatase (Candida dubliniensis (strain CD36 / CBS 7987 / NCPF 3949 / NRRLY-17841) (Yeast), UniProt B9W6M3); test: calcineurin pathway inhibitors in yeast reporter, dose response, S. cerevisiae, CDRE-lacZ, luminescence, secondary (AID 2388); assay type: functional, cell-based;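 further: yeast reporter cells carrying a calcineurin-responsive lacZ construct stimulated with calcium chloride; luminescent beta-galactosidase reporter signal in whole cells rather than isolated phosphatase activity; potency for inhibition where a drop in reporter signal means calcineurin blockade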
# T6 sequence (B9W6M3 whole entry): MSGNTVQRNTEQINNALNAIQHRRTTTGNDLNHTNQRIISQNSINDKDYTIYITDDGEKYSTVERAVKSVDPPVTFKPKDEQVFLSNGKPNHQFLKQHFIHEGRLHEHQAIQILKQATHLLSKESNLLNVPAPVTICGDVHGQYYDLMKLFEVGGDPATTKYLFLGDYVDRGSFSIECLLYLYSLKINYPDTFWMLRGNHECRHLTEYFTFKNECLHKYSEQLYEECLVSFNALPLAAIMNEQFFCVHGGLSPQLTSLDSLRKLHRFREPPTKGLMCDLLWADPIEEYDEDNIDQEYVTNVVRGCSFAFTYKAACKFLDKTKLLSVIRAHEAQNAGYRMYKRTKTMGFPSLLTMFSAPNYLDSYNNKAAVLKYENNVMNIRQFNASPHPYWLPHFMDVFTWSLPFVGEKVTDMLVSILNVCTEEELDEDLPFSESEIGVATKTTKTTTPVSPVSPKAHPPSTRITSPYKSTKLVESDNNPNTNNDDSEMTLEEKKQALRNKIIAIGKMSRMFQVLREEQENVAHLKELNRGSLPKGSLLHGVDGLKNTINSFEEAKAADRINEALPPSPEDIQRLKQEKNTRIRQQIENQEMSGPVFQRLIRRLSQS
# Phospholipase A2, sequence (P04054 whole entry): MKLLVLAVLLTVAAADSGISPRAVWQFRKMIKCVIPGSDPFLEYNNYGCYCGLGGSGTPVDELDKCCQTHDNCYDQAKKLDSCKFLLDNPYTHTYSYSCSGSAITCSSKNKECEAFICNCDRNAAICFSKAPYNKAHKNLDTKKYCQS
structure (smiles),measurement,setting,value
CN(C)c1cccc(C(=O)n2cc(C(=O)c3cc(F)ccc3O)cn2)c1,IC50,Phospholipase A2,9.78 µM (active)
same,IC50,Coagulation factor XII,12.4 µM (active)
same,IC50,Cysteine protease ATG4B,7.59 µM (active)
CCOC(=O)/C(C#N)=C\N(C)C,AC50,Cytochrome P450 3A4,inconclusive
same,AC50,Cytochrome P450 2C9,39.8 µM (inconclusive)
CC1(C)COC(/C=C/c2ccc([N+](=O)[O-])cc2)=N1,CC50,Vero [1],12.4 µM (active)
same,IC50,Vero [2],> 25 µM (active)
same,CC50,Vero [3],10.2 µM (active)
CCCCn1cnc2sc(-c3ccccc3)cc2c1=O,AC50,HeLa,111 µM (active)
Cc1ccc(NC(=O)c2sc3nc(C)cc(C)c3c2N)cc1,AC50,HeLa,213 µM (active)
Cc1ccc(Nc2ncc(C(=O)NCCCN3CCN(C)CC3)c3ccccc23)cc1Cl,CC50,Vero [1],> 25 µM (active)
same,IC50,Vero [2],22.7 µM (active)
O=S(=O)([N-]c1nc2ccccc2nc1-[n+]1ccn(Cc2ccccc2)c1)c1ccc(Cl)cc1,AC50,[4],24.8 µM (active)
same,IC50,Coagulation factor XII,> 50 µM (inactive)
Cn1cc(Cl)c(C(=O)Nc2nc3ccc([N+](=O)[O-])cc3s2)n1,IC50,[5],5.21 µM (active)
same,IC50,[6],> 50 µM (inactive)
CCN(CC)c1c([N+](=O)[O-])c(=O)sc2ccccc12,AC50,[7],> 120 µM (inactive)
CCCn1c(C)c(C(=O)c2ccc3ccccc3c2)c2ccccc21,AC50,Cytochrome P450 3A4,inconclusive
N#C/C(=C\c1ccc(-c2cccc([N+](=O)[O-])c2)o1)C(=O)Nc1nc(-c2cccs2)cs1,IC50,Beta-galactosidase,> 66.6 µM (inactive)
same,IC50,[8],> 66.6 µM (inactive)
CC(=O)Nc1ccc(NC(=O)c2ccc(NC(=O)c3ccccc3)cc2)cc1,IC50,[5],6.5 µM (active)
same,IC50,[6],> 50 µM (inactive)
O=[N+]([O-])c1cc2c(cc1/C=N/Nc1nc(O)c3ccccc3n1)OCO2,IC50,[9],3.63 µM (active)
same,IC50,[10],4.7 µM (active)
c1cc2c(cc1C1CCCCC1)c1c3n2CCCNC3CCC1 (centres undefined),IC50,Beta-galactosidase,> 66.6 µM (inactive)
same,EC50,[11],> 120 µM (not active)
same,IC50,[8],19.8 µM (active)
same,EC50,[12],5.92 µM (active)
same,EC50,[13],18 µM (active)
same,EC50,[14],4.46 µM (active)
same,EC50,[15],71.1 µM (active)
same,IC50,[16],> 20 µM (inactive)
O=C1CCCc2ccccc2N1Cc1ccccc1Cl,AC50,Cytochrome P450 3A4,inconclusive
O=C(NCc1ccncc1)c1ccc(Br)o1,IC50,Coagulation factor XII,> 50 µM (inactive)
CCC(=O)OCOc1ccc(/C=C2/CCC(CN(C)C)C2=O)cc1 (centres undefined),IC50,Beta-galactosidase,> 66.6 µM (inactive)
same,AC50,[17],2.85 µM (active)
same,IC50,[8],15.5 µM (active)
same,IC50,[18],> 80 µM (inactive)
CCOc1ccc(/N=C/c2c(C)[nH]n(-c3nc4ccccc4[nH]3)c2=O)cc1,AC50,INS1,1.98 µM (active)
same,EC50,BJ [19],2.41 µM (active)
same,EC50,BJ [20],4.74 µM (inconclusive)
same,EC50,BJ [21],1.22 µM (active)
same,EC50,[22],2.52 µM (active)
same,EC50,BJ [23],> 133 µM (inactive)
CS(=O)(=O)NN1C(=O)c2ccccc2NC1c1cccc2cccnc12 (centres undefined),EC50,[24],> 160 µM (inactive)
same,EC50,[25],> 160 µM (inactive)
same,EC50,[26],0.697 µM (active)
same,EC50,[27],> 180 µM (inactive)
Cc1ccc(OCc2cc(C(=O)N3C[C@H]4C[C@H]5C[C@@H](C4)C[C@H]3C5)no2)cc1C,AC50,HeLa,151 µM (active)
